Test results from PubChem BioAssay (NCI).
Values joined by “and” are separate entries in the source; they are usually repeats but may differ in a detail not shown here. Identical values can stand only once.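 All cell lines were grown in 96-well plates and treated with compound for 48 hours. GI50 marks 50% less growth. TGI: total growth inhibition.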

How the values were obtained:
Experiment in all cases: NCI anticancer screen, dose series, 48 h
[1] = system: LXFL 529 NSCLC
[2] = system: M19-MEL melanoma
[3] = system: NCI-H226 lung
[4] = system: SNB-78 CNS
[5] = system: U251 CNS
[6] = system: XF 498 CNS
[7] = system: HL-60(TB) leukemia
[8] = system: HOP-18 NSCLC
[9] = system: MDA-MB-435
[10] = system: HS 578T breast

Row | SMILES | TGI [1] | TGI [2] | TGI [3] | TGI [4] | TGI [5] | TGI [6] | TGI [7] | TGI [8] | GI50 [1] | GI50 [3] | GI50 [4] | GI50 [5] | GI50 [7] | GI50 [2] | TGI [9] | GI50 [6] | GI50 [10] | TGI [10] | GI50 [9] | GI50 [8]
1 | COC(=O)C(C(=O)C(=O)Nc1nc2ccc(OC)cc2s1)c1cnc2ccccc2n1 (stereo not drawn) | > 100 µM | > 100 µM | > 100 µM | > 100 µM | > 100 µM | > 100 µM | – | – | – | – | – | – | – | – | – | – | – | – | – | –
2 | NNC(=O)C(=O)N/N=C1\CCCC1C(=O)CCC(=O)Nc1cccc(Cl)c1 (stereo not drawn) | > 100 µM | > 100 µM | > 100 µM | > 100 µM | > 100 µM | > 100 µM | > 100 µM | > 100 µM | – | – | – | – | – | – | – | – | – | – | – | –
3 | NC(=O)c1c(-c2ccccc2)c(-c2ccccc2)cc2c(=O)c3ccccc3[nH]c12 | 32.7 µM | 79.3 µM | – | 54.1 µM | > 100 µM | 36.6 µM | – | – | – | – | – | – | – | – | – | – | – | – | – | –
4 | CCCOC(=O)C1C(c2ccc(OC)cc2)NC(c2ccc(OC)cc2)C(C(=O)OCCC)S1(=O)=O (stereo not drawn) | > 100 µM | – | > 100 µM | > 100 µM | > 100 µM | – | > 100 µM | – | > 100 µM | > 100 µM | > 100 µM | > 100 µM | – | – | – | – | – | – | – | –
5 | CCCCCCCCCCCCNC(=S)OCCCC | > 100 µM | > 100 µM | – | > 100 µM | > 100 µM | > 100 µM | 40.4 µM | > 100 µM | – | – | – | – | – | – | – | – | – | – | – | –
6 | COc1c(O)ccc(/C=N/NC(=S)NCOCCOC(C)=O)c1OC | > 100 µM | > 100 µM | > 100 µM | > 100 µM | > 100 µM | > 100 µM | > 100 µM | > 100 µM | – | – | – | – | – | – | – | – | – | – | – | –
7 | CC1Nc2ccccc2NC1C=C(C#N)C#N (stereo not drawn) | 25.7 µM | 30.5 µM | 36.9 µM | 36.4 µM | 30.3 µM | 31.1 µM | 4.69 µM | 40.1 µM | – | – | – | – | – | – | – | – | – | – | – | –
8 | COc1ccc(C2=NC(CO)[C@H](c3ccccc3)O2)cc1OC (stereo partly drawn) | > 100 µM | > 100 µM | > 100 µM | – | – | > 100 µM | > 100 µM | – | – | – | – | – | – | – | – | – | – | – | – | –
9 | CCOC(=O)c1ccc(N[C@@H]2c3cc4c(cc3C(c3cc(OC)c(O)c(OC)c3)[C@H]3C(=O)OCC32)OCO4)cc1 (stereo partly drawn) | 34.7 µM | 9.13 µM | 0.719 µM and 1.95 µM | 66.2 µM | 3.27 µM | 0.979 µM and 5.6 µM | 0.282 µM and 0.889 µM | – | – | – | – | 0.203 µM | 11.4 nM | 0.697 µM | > 100 µM | 0.418 µM | – | – | – | –
10 | O=C1CC2=CCCC2O1 (stereo not drawn) | > 100 µM | > 100 µM | – | > 100 µM | > 100 µM | > 100 µM | > 100 µM | – | – | – | – | – | – | – | – | – | – | – | – | –
11 | O=C1c2ccccc2C(=O)N1CCN(CCN1C(=O)c2ccccc2C1=O)Cc1ccccc1 | > 100 µM | > 100 µM | – | > 100 µM | > 100 µM | > 100 µM | > 100 µM | – | – | – | – | – | – | – | – | – | – | – | – | –
12 | O=C1C=C(c2ccccc2)NC1(c1ccccc1)c1cc(-c2ccccc2)[nH]c1-c1ccccc1 (stereo not drawn) | > 100 µM | > 100 µM | – | > 100 µM | > 100 µM | – | > 100 µM | > 100 µM | – | – | – | – | – | – | – | – | – | – | – | –
13 | CC1=C(C(=O)Nc2cc(F)c(F)cc2F)C(c2ccc(N(C)C)cc2)C(C(=O)Nc2cc(F)c(F)cc2F)=C(C)N1 | 63 µM | > 100 µM | > 92.9 µM | 65.4 µM | > 100 µM | – | > 61.2 µM | – | – | – | – | – | – | – | > 100 µM | – | 28.2 µM | > 100 µM | 41.7 µM | –
14 | O=S(=O)(c1ccccc1)C1(C2(S(=O)(=O)c3ccccc3)CCN=N2)CCN=N1 (stereo not drawn) | > 100 µM | > 100 µM | > 100 µM | – | > 100 µM | > 100 µM | > 100 µM | – | – | – | – | – | – | – | – | – | – | – | – | –
15 | O=[N+]([O-])C(=C1c2ccccc2-c2ccccc21)[N+](=O)[O-] | > 100 µM | – | > 100 µM | > 100 µM | > 100 µM | – | 98.9 µM | – | – | – | – | – | – | – | – | – | – | – | – | –
16 | COc1cc(Br)c(C=Nc2cccc3ccc(OS(=O)(=O)c4ccc([N+](=O)[O-])cc4)cc23)cc1OC | > 100 µM | > 100 µM | > 100 µM | > 100 µM | > 100 µM | – | – | – | – | – | – | – | – | – | – | – | – | – | – | –
17 | COc1ccc(-c2cc(-c3ccco3)c(C#N)c(=O)n2C2OC(COC(C)=O)C(OC(C)=O)C(OC(C)=O)C2OC(C)=O)cc1 (stereo not drawn) | 59.6 µM | > 100 µM | – | > 100 µM | > 100 µM and 34.7 µM | – | – | > 100 µM and 64.2 µM | – | – | – | > 100 µM and 16.1 µM | – | – | – | – | – | – | – | –
18 | CC1(C)CCOC(Sc2ccccc2)C1 (stereo not drawn) | > 100 µM | > 100 µM | – | > 100 µM | > 100 µM | > 100 µM | 34.4 µM | – | – | – | – | – | – | – | – | – | – | – | – | –
19 | O=S(=O)([O-])c1ccc(C=Nc2ccccc2)c([O-])c1.O=S(=O)([O-])c1ccc(C=Nc2ccccc2)c([O-])c1.[Co+2] | – | > 100 µM | > 100 µM | > 100 µM | – | > 100 µM | > 100 µM | > 100 µM | – | 17.7 µM | 51.7 µM | – | 2700 nM | 78.7 µM | – | 20.6 µM | – | – | – | 43.1 µM
20 | COC(=O)N1C=CC2=C(C)C3Nc4ccccc4C3C(C)=C2C1 (stereo not drawn) | 9.94 µM | > 100 µM | 5.1 µM | 3.66 µM | > 100 µM | 7.87 µM | 11.9 µM | – | – | – | – | – | – | – | – | – | – | – | – | –
